Structures are written as SMILES. Like-named read-outs stand apart in the source and are kept apart here.

Holding throughout (type): cell-based
The test system of experiment [1] is HRV16. Put plainly: HRV16 HeLa EC50 (cytopathic effect in H1-HeLa cells). Conditions: read-out: HRV16 HeLa EC50. The protocol: H1-HeLa cells, cultured in complete DMEM medium containing 10% heat-inactivated FBS and 1% Penicillin/Streptomycin, were seeded in 96 well plates at 3000 cells/well one day prior to compound dosing and infection. The antiviral activity of each compound was measured in triplicate. Compounds were added directly to the cell cultures in serial 3-fold dilutions using the HP300 digital dispenser (Hewlett Packard, Palo Alto, CA) immediately prior to infection. The plates were transferred to BSL-2 containment and the appropriate dilution of virus stock, previously determined by titration and prepared in cell culture media, was added to test plates containing cells and serially diluted compounds. Each plate included 6 wells of infected untreated cells and 6 wells of uninfected cells that served as 0% and 100% virus inhibition control, respectively. Following the infection, test plates were incubated for 96 h in a tissue culture incubator set to 33° C./5% CO2. Following incubation, the H1-HeLa cells were removed from incubation and allowed to equilibrate to 25° C. Cell viability was determined by removing 100 μL of culture medium and adding 100 μL of Cell-Titer Glo viability reagent. The mixtures were incubated on a shaker for 10 minutes at 25° C., and the luminescence signal was quantified on an Envision luminescence plate reader.
(Cytopathic effects are the visible damage that an infection or toxin causes in cultured cells.)

Experiment [2] deals with RSV A2. Nature of the experiment: RSV NHBE EC50 (RSV A2 antiviral assay in NHBE cells). Particulars: read-out: RSV NHBE EC50. On the procedure:
Normal human bronchial epithelial (NHBE) cells were purchased from Lonza (Walkersville, MD, Cat #CC-2540) and cultured in Bronchial Epithelial Growth Media (BEGM) (Lonza, Walkersville, MD, Cat #CC-3170). The cells were passaged 1-2 times per week to maintain <80% confluency. The NHBE cells were discarded after 6 passages in culture.
To conduct the RSV A2 antiviral assay, NHBE cells were plated in 96-well plates at a density of 7,500 cells per well in BEGM and allowed to attach overnight at 37° C. Following attachment, 100 μL of cell culture media was removed and 3-fold serially diluted compound was added using a Hewlett-Packard D300 Digital Dispenser. The final concentration of DMSO was normalized to 0.05%. Following compound addition, the NHBE cells were infected by the addition of 100 μL of RSV A2 at a titer of 1×10^4.5 tissue culture infectious doses/mL in BEGM and then incubated at 37° C. for 4 days. The NHBE cells were then allowed to equilibrate to 25° C. and cell viability was determined by removing 100 μL of culture medium and adding 100 μL of Cell-Titer Glo viability reagent. The mixtures were incubated for 10 minutes at 25° C., and the luminescence signal was quantified on an Envision luminescence plate reader.

In experiment [3] the test system is RSV strain A2. Put plainly: microbe, parasite or virus in culture. Particulars: read-out: RSV HEp-2 EC50. The protocol: Antiviral activity against RSV is determined using an infectious cytopathic cell protection assay in HEp-2 cells. In this assay, compounds inhibiting viral infection and/or replication produce a cytoprotective effect against the virus-induced cell killing that can be quantified using a cell viability reagent. The techniques used here are novel adaptations of methods described in published literature (Chapman et al., Antimicrob Agents Chemother. 2007, 51(9):3346-53.).
HEp-2 cells are obtained from ATCC (Manassas, VI) and maintained in MEM media supplemented with 10% fetal bovine serum and penicillin/streptomycin. Cells are passaged twice a week and kept at subconfluent stage. Commercial stock of RSV strain A2 (Advanced Biotechnologies, Columbia, MD) is titered before compound testing to determine the appropriate dilution of the virus stock that generates desirable cytopathic effect in HEp-2 cells.
For antiviral tests, HEp-2 cells are grown in large cell culture flasks to near confluency but not fully so. The compounds to be tested are prediluted in DMSO in 384-well compound dilution plates, either in an 8 or 40 sample per plate standardized dose response format. 3-fold serial dilution increments of each test compound are prepared in the plates and test samples are transferred via acoustic transfer apparatus (Echo, Labcyte) at 100 nL per well into cell culture assay 384-well plates. Each compound dilution is transferred in single or quadruplicate samples into dry assay plates, which are stored until assay is ready to go. The positive and negative controls are laid out in opposite on ends of the plate in vertical blocks (1 column).
Subsequently, an infectious mixture is prepared using an appropriate dilution of virus stock previously determined by titration with cells at a density of 50,000/mL and 20 µL/well is added to test plates w/compounds via automation (uFlow, Biotek). Each plate includes negative and positive controls (16 replicates each) to create 0% and 100% virus inhibition standards, respectively. Following the infection with RSV, testing plates are incubated for 4 days in a 37° C. cell culture incubator. After the incubation, a cell viability reagent, Cell TiterGlo (Promega, Madison, WI) is added to the assay plates, which are incubated briefly, and a luminescent readout is measured (Envision, Perkin Elmer) in all the assay plates. The RSV-induced cytopathic effect, percentage inhibition, is determined from the levels of remaining cell viability. […] Various potent anti-RSV tool compounds are used as positive controls for antiviral activity.

Where [4] appears, read: Table 3, NHBE cells, RSV A2, 4 days.
The mark [5] stands for this setting: Table 3, HEp-2 cells, RSV A2, 4 days.
Where [6] appears, read: HeLa, Table 5 comparative activity, 2',3'-OH vs -OC(O)iPr.
Where [7] appears, read: human respiratory syncytial virus, NHBE, Table 5 comparative activity, 2',3'-OH vs -OC(O)iPr.
Where [8] appears, read: human respiratory syncytial virus, HEp-2, Table 5 comparative activity, 2',3'-OH vs -OC(O)iPr.
Setting [9] is: 96 h, Table 3, H1-HeLa cells, 96 h.
Setting [10] is: human respiratory syncytial virus, NHBE, 96 h, Table 3, NHBE cells, RSV A2, 4 days.
The mark [11] stands for this setting: human respiratory syncytial virus, HEp-2, 96 h, Table 3, HEp-2 cells, RSV A2, 4 days.

For the compound `CC(C)C(=O)OC1C(c2ccc3c(N)ncnn23)OC(C#N)(COP(=O)(NC(C)C(=O)OC2CCN(C)C2)Oc2ccccc2)C1OC(=O)C(C)C` (single isomer, unassigned) [Example 230], the EC50 – broadly, the concentration at which the effect is half-maximal – in experiment [1] (Table 3, H1-HeLa cells, 96 h) stood at 864 nM; in experiment [2] (setting [4]), 47 nM; in experiment [3] (setting [5]), 102 nM.
`C[C@H](NP(=O)(OC[C@@]1(C#N)O[C@@H](c2ccc3c(N)ncnn23)[C@H](O)[C@@H]1O)Oc1ccccc1)C(=O)O[C@H]1CCN(C)C1` (stereo partly drawn) [Example 15, (S)-1-methylpyrrolidin-3-yl ((((2R,3S,4R,5S)-5-(4-aminopyrrolo[2,1-f][1,2,4]triazin-7-yl)-2-cyano-3,4-dihydroxytetrahydrofuran-2-yl)methoxy)(phenoxy)phosphoryl)-L-alaninate]: the EC50 in experiment [1] (setting [6]) is 11400 nM; in experiment [2] (setting [7]), 3260 nM; in experiment [3] (setting [8]) it was 4330 nM.
Take `CC(C)C(=O)O[C@H]1[C@H](c2ccc3c(N)ncnn23)O[C@](C#N)(COP(=O)(N[C@@H](C)C(=O)OCCN(C(C)C)C(C)C)Oc2ccccc2)[C@H]1OC(=O)C(C)C` (stereo partly drawn) [Example 224, (2R,3S,4S,5S)-5-(4-aminopyrrolo[2,1-f][1,2,4]triazin-7-yl)-2-cyano-2-((((((S)-1-(2-(diisopropylamino)ethoxy)-1-oxopropan-2-yl)amino)(phenoxy)phosphoryl)oxy)methyl)tetrahydrofuran-3,4-diyl bis(2-methylpropanoate)]: the figures for the EC50 in experiment [1] (setting [9]), in experiment [2] (setting [10]) and in experiment [3] (setting [11]) were 1700 nM, 986 nM and 378 nM, respectively.
For `CC(C)C(=O)OC1C(c2ccc3c(N)ncnn23)OC(C#N)(COP(=O)(NC(C)C(=O)OC2CCN(C)C2)Oc2ccccc2)C1OC(=O)C(C)C` (single isomer, unassigned) [Example 229], the EC50 in experiment [1] (Table 3, H1-HeLa cells, 96 h) came out at 676 nM; in experiment [2] (setting [4]), 23 nM; in experiment [3] (setting [5]), 16 nM.
The matching figures for `CC(C)C(=O)O[C@H]1[C@H](c2ccc3c(N)ncnn23)O[C@](C#N)(COP(=O)(N[C@@H](C)C(=O)O[C@H]2CCOC2)Oc2ccccc2)[C@H]1OC(=O)C(C)C` (single isomer, unassigned) [Example 241]: 131 nM, 13 nM and 25 nM.
As for `CC(C)C(=O)O[C@H]1[C@H](c2ccc3c(N)ncnn23)O[C@](C#N)(COP(=O)(N[C@@H](C)C(=O)OC2CCN(C)CC2)Oc2ccccc2)[C@H]1OC(=O)C(C)C` (stereo partly drawn) [Example 162, (2R,3S,4S,5S)-5-(4-aminopyrrolo[2,1-f][1,2,4]triazin-7-yl)-2-cyano-2-((((((S)-1-((1-methylpiperidin-4-yl)oxy)-1-oxopropan-2-yl)amino)(phenoxy)phosphoryl)oxy)methyl)tetrahydrofuran-3,4-diyl bis(2-methylpropanoate)], the EC50 came out at 1620 nM in experiment [1] (setting [9]); 1620 nM in experiment [1] (setting [6]); 28 nM in experiment [2] (setting [10]); 28 nM in experiment [2] (setting [7]); 179 nM in experiment [3] (setting [11]); 179 nM in experiment [3] (setting [8]).
In the case of `CC(C)C(=O)O[C@H]1[C@H](c2ccc3c(N)ncnn23)O[C@](C#N)(COP(=O)(N[C@@H](C)C(=O)OCC2CC2)Oc2ccccc2)[C@H]1OC(=O)C(C)C` (stereo partly drawn) [Example 238, (2R,3S,4S,5S)-5-(4-aminopyrrolo[2,1-f][1,2,4]triazin-7-yl)-2-cyano-2-((((((S)-1-(cyclopropylmethoxy)-1-oxopropan-2-yl)amino)(phenoxy)phosphoryl)oxy)methyl) tetrahydrofuran-3,4-diyl bis(2-methylpropanoate)], the EC50 stood at 99 nM in experiment [1] (Table 3, H1-HeLa cells, 96 h); 28 nM in experiment [2] (setting [4]); 27 nM in experiment [3] (setting [5]).
For the compound `CC(C)C(=O)O[C@H]1[C@H](c2ccc3c(N)ncnn23)O[C@](C#N)(COP(=O)(N[C@@H](C)C(=O)O[C@H]2CCOC2)Oc2ccccc2)[C@H]1OC(=O)C(C)C` (single isomer, unassigned) [Example 240], the EC50 in experiment [1] (setting [9]) came out at 125 nM; in experiment [2] (setting [10]), 24 nM; in experiment [3] (setting [11]), 20 nM.
Take `COC(=O)[C@H](C)N[P@](=O)(OC[C@@]1(C#N)O[C@@H](c2ccc3c(NC(=O)C4CCN(C)CC4)ncnn23)[C@H](OC(=O)C2CCN(C)CC2)[C@@H]1OC(=O)C1CCN(C)CC1)Oc1ccccc1` [Example 220, (2R,3S,4S,5S)-2-cyano-2-((((S)-(((S)-1-methoxy-1-oxopropan-2-yl)amino)(phenoxy)phosphoryl)oxy)methyl)-5-(4-(1-methylpiperidine-4-carboxamido)pyrrolo[2,1-f][1,2,4]triazin-7-yl)tetrahydrofuran-3,4-diyl bis(1-methylpiperidine-4-carboxylate)]: the EC50 is 13500 nM in experiment [1] (setting [9]), 4860 nM in experiment [2] (setting [10]) and 167 nM in experiment [3] (setting [11]).
In the same order, the values of `CC(C)C(=O)O[C@H]1[C@H](c2ccc3c(N)ncnn23)O[C@](C#N)(COP(=O)(N[C@@H](C)C(=O)OCCCN2CCOCC2)Oc2ccccc2)[C@H]1OC(=O)C(C)C` (stereo partly drawn) [Example 237, (2R,3S,4S,5S)-5-(4-aminopyrrolo[2,1-f][1,2,4]triazin-7-yl)-2-cyano-2-((((((S)-1-(3-morpholinopropoxy)-1-oxopropan-2-yl)amino)(phenoxy)phosphoryl)oxy)methyl) tetrahydrofuran-3,4-diyl bis(2-methylpropanoate)] are 478 nM, 43 nM and 106 nM.
Regarding `CC(C)C(=O)O[C@H]1[C@H](c2ccc3c(N)ncnn23)O[C@](C#N)(COP(=O)(N[C@@H](C)C(=O)O[C@@H]2CCOC2)Oc2ccccc2)[C@H]1OC(=O)C(C)C` (single isomer, unassigned) [Example 244], the EC50 in experiment [2] (setting [4]) turned out to be 21 nM; in experiment [3] (setting [5]), 63 nM.
On to `CCCCOC(=O)C(C)NP(=O)(OCC1(C#N)OC(c2ccc3c(N)ncnn23)C(OC(=O)C(C)C)C1OC(=O)C(C)C)Oc1ccccc1` (single isomer, unassigned) [Example 226], for which the EC50 in experiment [2] (setting [4]) and in experiment [3] (setting [5]) was 9 nM each time.

The values are drawn from US12264173B2 (GILEAD SCIENCES, INC., priority 2020, dated 2025).
